This note sets out measurements from BindingDB's records for doi:10.1080/14756360701654894 (National Tsing Hua University, 2008).

The target of one experiment is T1, Polyphenol oxidase 2 (Agaricus bisporus, UniProt O42713).
T1 sequence (O42713 whole entry): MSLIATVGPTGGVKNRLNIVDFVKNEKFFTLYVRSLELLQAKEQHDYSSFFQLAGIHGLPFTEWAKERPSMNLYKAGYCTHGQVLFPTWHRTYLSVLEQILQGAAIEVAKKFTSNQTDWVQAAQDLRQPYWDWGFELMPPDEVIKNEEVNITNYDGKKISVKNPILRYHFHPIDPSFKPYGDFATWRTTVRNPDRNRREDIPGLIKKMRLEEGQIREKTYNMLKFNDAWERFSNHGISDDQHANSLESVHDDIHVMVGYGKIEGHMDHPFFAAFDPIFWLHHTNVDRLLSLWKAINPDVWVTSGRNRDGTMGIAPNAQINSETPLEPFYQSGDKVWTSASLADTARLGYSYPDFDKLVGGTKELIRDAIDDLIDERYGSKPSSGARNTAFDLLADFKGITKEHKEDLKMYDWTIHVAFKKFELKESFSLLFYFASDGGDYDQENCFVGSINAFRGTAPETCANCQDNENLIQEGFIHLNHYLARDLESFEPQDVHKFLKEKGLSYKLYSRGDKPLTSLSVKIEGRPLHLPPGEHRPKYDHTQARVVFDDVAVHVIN
Kind of experiment: Enzyme Assay. The note with it: pH 6.8; 25 °C.

Another experiment deals with T2, Tyrosinase (Mus musculus, UniProt P11344).
T2 sequence (P11344 whole entry): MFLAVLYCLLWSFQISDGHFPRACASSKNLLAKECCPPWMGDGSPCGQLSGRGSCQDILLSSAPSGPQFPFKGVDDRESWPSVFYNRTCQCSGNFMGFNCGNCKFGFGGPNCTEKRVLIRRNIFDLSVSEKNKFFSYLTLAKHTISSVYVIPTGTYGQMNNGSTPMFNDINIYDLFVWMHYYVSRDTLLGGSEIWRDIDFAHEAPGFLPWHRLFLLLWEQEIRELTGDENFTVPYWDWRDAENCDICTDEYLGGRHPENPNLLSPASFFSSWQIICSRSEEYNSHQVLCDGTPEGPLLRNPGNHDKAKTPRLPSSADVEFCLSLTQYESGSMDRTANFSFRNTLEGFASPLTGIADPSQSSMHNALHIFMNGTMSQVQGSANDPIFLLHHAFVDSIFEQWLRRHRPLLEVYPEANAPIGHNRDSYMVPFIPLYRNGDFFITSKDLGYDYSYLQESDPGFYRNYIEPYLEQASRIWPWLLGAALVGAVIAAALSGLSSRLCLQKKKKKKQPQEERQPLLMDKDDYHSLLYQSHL
Kind of experiment: Enzyme Assay. The settings on record: pH 6.8; 25 °C.

Each structure is given as a SMILES string.

The term IC50 denotes the point on the concentration scale where inhibition reaches its midpoint. The low end stands for higher potency, the high end for lower potency. Take `OCC1OC(Oc2ccc(O)cc2)C(O)C(O)C1O` (centres undefined) [2-Hydroxymethyl-6-(4-hydroxy-phenoxy)-tetrahydro-pyran-3,4,5-triol]: the IC50 on Polyphenol oxidase 2 came out at 296 µM.
Take `COc1cc(-c2nc(S(=O)(=O)c3ccc(C)cc3)c(N3CCOCC3)o2)cc(OC)c1OC` [4-[4-(4-methylphenyl)sulfonyl-2-(3,4,5-trimethoxyphenyl)-5-oxazolyl]morpholine]: the IC50 was 952 µM against Tyrosinase and 402 µM against Polyphenol oxidase 2.
On to `Oc1ccc(O)cc1`, for which the IC50 against Tyrosinase was 188 µM; at Polyphenol oxidase 2 it was 87.6 µM.
For `COc1ccc(/C=C2/SC(=S)N(CCC(=O)O)C2=O)cc1` [3-[(5E)-5-[(4-methoxyphenyl)methylidene]-4-oxo-2-sulfanylidene-3-thiazolidinyl]propanoic acid] the same measures were 2390 µM and 894 µM.
For `OCc1ccc(O)cc1` [4-Hydroxybenzyl alcohol] the same measures were 650 µM and 350 µM.
